Data on 14 compounds can be found in PubChem BioAssay (NCI).

Structures are written as SMILES.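 Results reflect a 48-hour exposure of cells in 96-well plates to compound at five concentrations. GI50 = concentration required for 50% inhibition of growth. TGI denotes the concentration required for complete inhibition of growth.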

Test systems include HL-60(TB) leukemia; A549 NSCLC; SK-MEL-2 melanoma; SF-539 CNS; SK-MEL-5 melanoma; TK-10 renal; SNB-19 CNS; COLO 205 colon; MALME-3M melanoma.
Test in all cases: NCI anticancer screen, dose series, 48 h

Turning to `CC(C)C1=Cc2ccc3c(c2C(=O)C1=O)CCCC3`, the TGI turned out to be 1.95 µM in the assay on HL-60(TB) leukemia; 34.4 µM in the assay on A549 NSCLC; 18.8 µM with SK-MEL-2 melanoma; 16.9 µM in the assay on SF-539 CNS; 25.6 µM in the assay with SK-MEL-5 melanoma; 6.55 µM in the assay with TK-10 renal. Besides, the TGI in the assay with SNB-19 CNS stood at 37.5 µM; in the assay with COLO 205 colon, 27.1 µM; in the assay with MALME-3M melanoma it was 5.78 µM.

In the case of `CCN1/C(=C/C(C)=C/c2sc3ccc4ccccc4c3[n+]2CC)Sc2ccc3ccccc3c21`, the GI50 in the assay on HL-60(TB) leukemia was 0.106 µM; in the assay with A549 NSCLC, 0.0271 µM; in the assay on SK-MEL-2 melanoma, 0.193 µM; in the assay on SF-539 CNS, 0.227 µM; with SK-MEL-5 melanoma, 0.123 µM; in the assay with TK-10 renal, 0.217 µM. Moreover, the TGI in the assay with HL-60(TB) leukemia turned out to be 2.68 µM; in the assay on A549 NSCLC, 0.272 µM; in the assay with SK-MEL-2 melanoma, 0.586 µM; in the assay with SF-539 CNS, 1.01 µM; in the assay with SK-MEL-5 melanoma, 0.352 µM; with TK-10 renal, 0.997 µM.

With `CCNCC(=O)Nc1ccc2c(c1)C(=O)c1ccc(NC(=O)CNCC)cc1C2=O`, the TGI is 8.81 µM with HL-60(TB) leukemia; 14.6 µM in the assay with A549 NSCLC; 47.4 µM in the assay with SK-MEL-2 melanoma; 16.2 µM in the assay with SF-539 CNS; 59.3 µM with SK-MEL-5 melanoma; 18.7 µM in the assay with TK-10 renal. The TGI is 12.1 µM in the assay with SNB-19 CNS, 3.69 µM in the assay with COLO 205 colon and 33 µM in the assay with MALME-3M melanoma.

With `C=CCCn1nc(-c2ccccc2)oc1=O`, the TGI in the assay with HL-60(TB) leukemia, with A549 NSCLC, in the assay on SK-MEL-2 melanoma, with SF-539 CNS, in the assay on SK-MEL-5 melanoma and in the assay with TK-10 renal was greater than 100 µM throughout. Besides, the TGI in the assay on SNB-19 CNS, with COLO 205 colon and with MALME-3M melanoma was greater than 100 µM in each case.

For `CN(C)CC1(C)CC/C(=C\c2ccc(Cl)cc2)C1=O` (centres undefined), the TGI with HL-60(TB) leukemia, with A549 NSCLC, in the assay on SK-MEL-2 melanoma, in the assay with SF-539 CNS, in the assay on SK-MEL-5 melanoma and with TK-10 renal was greater than 100 µM in each case. The TGI is 65.2 µM with SNB-19 CNS, 31.7 µM in the assay with COLO 205 colon and greater than 100 µM with MALME-3M melanoma.

As for `C[C@@H]1CC[C@@]2(C)OC(c3ccccc3)[C@H](CO)N2C1=O` (some centres undefined), the TGI in the assay with A549 NSCLC, in the assay with SK-MEL-2 melanoma, in the assay on SF-539 CNS, in the assay with SK-MEL-5 melanoma, in the assay with TK-10 renal and with SNB-19 CNS was greater than 100 µM throughout. Also, the TGI with COLO 205 colon and in the assay on MALME-3M melanoma was greater than 100 µM throughout.

For the compound `COc1ccc(OC)c(N2CC(O)=C(c3nc4ccccc4s3)C2=N)c1`, the GI50 is 71.2 µM with A549 NSCLC; 26.1 µM in the assay on SK-MEL-2 melanoma; 83.8 µM in the assay with SF-539 CNS; 14.7 µM with SK-MEL-5 melanoma; greater than 100 µM in the assay with TK-10 renal; greater than 100 µM with SNB-19 CNS. In addition, the GI50 in the assay on COLO 205 colon was 47.3 µM; with MALME-3M melanoma, 16.4 µM. The TGI in the assay with A549 NSCLC is greater than 100 µM; with SK-MEL-2 melanoma, greater than 100 µM; in the assay with SF-539 CNS, greater than 100 µM; in the assay on SK-MEL-5 melanoma it was 46.6 µM; with TK-10 renal, greater than 100 µM; with SNB-19 CNS, greater than 100 µM. The TGI was greater than 100 µM with COLO 205 colon and 82 µM in the assay on MALME-3M melanoma.

In the case of `C=CC12CCCCC1CC(C(=O)OC)=C(O)C2` (centres undefined), the TGI with HL-60(TB) leukemia, in the assay with A549 NSCLC, with SK-MEL-2 melanoma, in the assay with SF-539 CNS, in the assay on SK-MEL-5 melanoma and in the assay on TK-10 renal was greater than 100 µM in each case. Moreover, the TGI with SNB-19 CNS and with COLO 205 colon was greater than 100 µM in each case.

Take `CC1OC(n2cc(F)c(=O)[nH]c2=O)CCC1=O` (centres undefined): the TGI in the assay on HL-60(TB) leukemia was greater than 100 µM; in the assay with A549 NSCLC it was greater than 100 µM; in the assay with SK-MEL-2 melanoma it was greater than 100 µM; in the assay on SF-539 CNS, 88.7 µM; in the assay with SK-MEL-5 melanoma, greater than 100 µM; in the assay with TK-10 renal, greater than 100 µM. The TGI with SNB-19 CNS, in the assay on COLO 205 colon and in the assay with MALME-3M melanoma was greater than 100 µM throughout.

For the compound `O/N=C1/CCCC/C1=C\c1ccc(Cl)c(Cl)c1`, the TGI with HL-60(TB) leukemia is 23 µM; in the assay with A549 NSCLC, greater than 100 µM; with SF-539 CNS it was 41.1 µM; with SK-MEL-5 melanoma it was 35.6 µM; with TK-10 renal, greater than 100 µM; in the assay with SNB-19 CNS, 91.6 µM. Moreover, the TGI in the assay with COLO 205 colon was found to be 38.9 µM.

As for `CC(=O)N1c2ccccc2N(C(C)=O)C1c1ccc(C2N(C(C)=O)c3ccccc3N2C(C)=O)[nH]1`, the TGI in the assay on HL-60(TB) leukemia, in the assay with A549 NSCLC, in the assay with SF-539 CNS, in the assay with SK-MEL-5 melanoma, in the assay with TK-10 renal and in the assay with SNB-19 CNS was greater than 100 µM in each case. Besides, the TGI in the assay on COLO 205 colon and with MALME-3M melanoma was greater than 100 µM throughout.

In the case of `C=C(C)CC(C(=O)O)c1ccc(C)cc1` (centres undefined), the TGI in the assay on A549 NSCLC, in the assay on SK-MEL-2 melanoma, with SF-539 CNS, in the assay on SK-MEL-5 melanoma, in the assay with TK-10 renal and in the assay with SNB-19 CNS was greater than 100 µM each time. Besides, the TGI in the assay on COLO 205 colon and in the assay with MALME-3M melanoma was greater than 100 µM each time.

`O=CCCn1[nH]c(=O)ccc1=O`: the TGI in the assay with HL-60(TB) leukemia, in the assay on A549 NSCLC, in the assay on SK-MEL-2 melanoma, in the assay with SF-539 CNS, in the assay with SK-MEL-5 melanoma and in the assay with TK-10 renal was greater than 100 µM each time. Besides, the TGI with SNB-19 CNS and in the assay with MALME-3M melanoma was greater than 100 µM throughout.

Consider `NC1=NN(c2ccccc2)C(=O)C1C(=O)C(=O)Nc1ccccc1` (centres undefined), for which the TGI in the assay on HL-60(TB) leukemia, in the assay on A549 NSCLC, with SK-MEL-2 melanoma, with SF-539 CNS, with SK-MEL-5 melanoma and in the assay with TK-10 renal was greater than 100 µM throughout. The TGI in the assay with SNB-19 CNS, in the assay on COLO 205 colon and with MALME-3M melanoma was greater than 100 µM throughout.
